According to patent US8044204B2, “8-methoxy-9H-isothiazolo[5,4-b]quinoline-3,4-diones and related compounds as anti-infective agents” (Achillion Pharmaceuticals, Inc., priority 2005, dated 2011):

Assays:
S. aureus ATCC 29213 = experiment: Minimum Inhibitory Concentration (MIC) assay, S. aureus; format: cell-based; settings: Staphylococcus aureus, ATCC29213; broth microdilution; read-out: MIC against S. Aureus
Description: (§1) The antimicrobial activity of the compounds of the invention may be evaluated by a number of methods, including the following visual minimum inhibitory concentration (MIC) assay. This assay determines the minimum concentration of compound required to inhibit growth of a bacterial strain.
(§2) Minimum Inhibitory Concentration (MIC) Assay
(§3) Whole-cell antibacterial activity is determined by broth microdilution using conditions recommended by the NCCLS (see National Committee for Clinical Laboratory Standards. 2001. Performance standards for antimicrobial susceptibility testing: 11th informational supplement. Vol. 21, no. 1, M100-S11. National Committee for Clinical Laboratory Standards, Wayne, Pa.). Test compounds are dissolved in DMSO and diluted 1:50 in Mueller-Hinton II broth (Becton-Dickinson) to produce a 256 μg/ml stock solution. In a 96-well microtiter plate, the compound solution is serially two-fold diluted in Mueller-Hinton II broth. After the compounds are diluted, a 50 μl aliquot of the test organism (˜1×10^6 cfu/mL) is added to each well of the microtiter plate. The final test concentrations ranges from 0.125-128 μg/mL. Inoculated plates are incubated in ambient air at 37° C. for 18 to 24 hours. The organisms selected for testing included laboratory strains S. aureus ATCC 29213 and E. coli ATCC 25922 (strains purchased from American Type Culture Collection, Manassas, Va.), S. aureus FQR700699, and Paeruginosa 27853. The minimum inhibitory concentration (MIC) is determined as the lowest concentration of compound that inhibited visible growth of the test organism.

E. coli ATCC 25922 = experiment: Minimum Inhibitory Concentration (MIC) assay, E. coli; format: cell-based; settings: Escherichia coli, ATCC25922; broth microdilution; read-out: MIC against E. coli
Description: as §1, §2, §3

| SMILES | MIC (S. aureus ATCC 29213) [µg/mL] | MIC (E. coli ATCC 25922) [µg/mL] |
| --- | --- | --- |
| O=c1[nH]sc2c1c(=O)c1cc(F)c(N3CCNCC3)cc1n2C1CC1 [Compound 20, 9-cyclopropyl-6-fluoro-7-(piperazin-1-yl)isothia-zolo[5,4-b]quinoline-3,4(2H,9H)-dione] | ≤ 1 | ≤ 1 |
| CN(C(=O)OC(C)(C)C)C1CCN(c2cc3c(cc2F)c(=O)c2c(=O)[nH]sc2n3C2CC2)C1 (centres unmarked) [Compound 25, tert-butyl 1-(9-cyclopropyl-6-fluoro-3,4-dioxo-2,3,4,9-tetrahydroiso-thiazolo[5,4-b]quinolin-7-yl)pyrrolidin-3-yl(methyl) carbamate] | ≤ 1 |  |
| CC(C)(C)OC(=O)NC1CCN(c2cc3c(cc2F)c(=O)c2c(=O)[nH]sc2n3C2CC2)C1 (centres unmarked) [Compound 27, tert-butyl 1-(9-cyclopropyl-6-fluoro-3,4-dioxo-2,3,4,9-tetrahydroiso-thiazolo[5,4-b]quinolin-7-yl)pyrrolidin-3-ylcarbamate] | ≤ 1 | ≤ 1 |
| CCn1c2cc(N3CCNCC3)c(F)cc2c(=O)c2c(=O)[nH]sc21 [Compound 31, 9-ethyl-6-fluoro-7-(piperazin-1-yl)isothia-zolo[5,4-b]quinoline-3,4(2H,9H)-dione] | ≤ 1 | ≤ 1 |
| COc1c(N2CC[C@H](C(C)(C)N)C2)ccc2c(=O)c3c(=O)[nH]sc3n(C3CC3)c12 [Compound 60, (S)-7-(3-(2-aminopropan-2-yl)pyrrolidin-1-yl)-9-cyclopropyl-8-methoxyiso-thiazolo[5,4-b]quinoline-3,4(2H,9H)-dione] | ≤ 1 |  |
| CCn1c2s[nH]c(=O)c2c(=O)c2cc(F)c(N3CCNCC3)c(OC)c21 [Compound 62, 9-ethyl-6-fluoro-8-methoxy-7-(piperazin-1-yl)isothia-zolo[5,4-b]quinoline-3,4(2H,9H)-dione] | ≤ 1 |  |
| COc1c(N2CC[C@@H](CN)C2)ccc2c(=O)c3c(=O)[nH]sc3n(C3CC3)c12 [Compound 65, (S)-7-(3-(aminomethyl)-pyrrolidin-1-yl)-9-cyclopropyl-8-methoxyiso-thiazolo[5,4-b]quinoline-3,4(2H,9H)-dione] | ≤ 1 |  |
| COc1c(N2C[C@@H]3CCCN[C@@H]3C2)c(F)cc2c(=O)c3c(=O)[nH]sc3n(C3CC3)c12 [Compound 69, 9-cyclopropyl-6-fluoro-8-methoxy-7-((4aS,7aS)-octahydro-pyrrolo[3,4-b]pyridin-6-yl)isothia-zolo[5,4-b]quinoline-3,4(2H,9H)-dione] | ≤ 1 |  |
| COc1cc2c(=O)c3c(=O)[nH]sc3n(C3CC3)c2c(F)c1N1CCNCC1 [Compound 84, 9-cyclopropyl-8-fluoro-6-methoxy-7-(piperazin-1-yl)isothia-zolo[5,4-b]quinoline-3,4(2H,9H)-dione] |  | ≤ 1 |
| CC[C@H](NC)[C@@H]1CCN(c2c(F)cc3c(=O)c4c(=O)[nH]sc4n(C4CC4)c3c2OC)C1 [Compound 91, 9-cyclopropyl-6-fluoro-8-methoxy-7-((R)-3-((S)-1-(methylamino)-propyl)pyrrolidin-1-yl)isothia-zolo[5,4-b]quinoline-3,4(2H,9H)-dione] | ≤ 1 |  |
| COc1c(N2CC[C@@H](N)C2)c(F)cc2c(=O)c3c(=O)[nH]sc3n(C3CC3)c12 [Compound 96, (R)-7-(3-amino-pyrrolidin-1-yl)-9-cyclopropyl-6-fluoro-8-methoxyiso-thiazolo[5,4-b]quinoline-3,4(2H,9H)-dione] | ≤ 1 |  |
| COc1c(N2CC[C@@H](N)C2)ccc2c(=O)c3c(=O)[nH]sc3n(C3CC3)c12 [Compound 97, (R)-7-(3-amino-pyrrolidin-1-yl)-9-cyclopropyl-8-methoxyiso-thiazolo[5,4-b]quinoline-3,4(2H,9H)-dione] | ≤ 1 |  |
| CN[C@@H]1CCN(c2c(F)cc3c(=O)c4c(=O)[nH]sc4n(C4CC4)c3c2OC)C1 [Compound 98, (R)-9-cyclo-propyl-6-fluoro-8-methoxy-7-(3-(methylamino)-pyrrolidin-1-yl)isothia-zolo[5,4-b]quinoline-3,4(2H,9H)-dione] | ≤ 1 |  |
| CN[C@@H]1CCN(c2ccc3c(=O)c4c(=O)[nH]sc4n(C4CC4)c3c2OC)C1 [Compound 99, (R)-9-cyclo-propyl-8-methoxy-7-(3-(methyl-amino)-pyrrolidin-1-yl)iso-thiazolo[5,4-b]quinoline-3,4(2H,9H)-dione] | ≤ 1 |  |
| COc1c(N2CCC(N)(CO)C2)c(F)cc2c(=O)c3c(=O)[nH]sc3n(C3CC3)c12 (centres unmarked) [Compound 109, 7-(3-amino-3-(hydroxy-methyl)-pyrrolidin-1-yl)-9-cyclo-propyl-6-fluoro-8-methoxyiso-thiazolo[5,4-b]quinoline-3,4(2H,9H)-dione] | ≤ 1 |  |
| COc1c(N2CC[C@@H]([C@@H](C)N)C2)ccc2c(=O)c3c(=O)[nH]sc3n(C3CC3)c12 [Compound 110, 7-((R)-3-((R)-1-aminoethyl)-pyrrolidin-1-yl)-9-cyclo-propyl-8-methoxyiso-thiazolo[5,4-b]quinoline-3,4(2H,9H)-dione] | ≤ 1 |  |
| COc1c(N2CC[C@@H](C(C)NC3CCCC3)C2)c(F)cc2c(=O)c3c(=O)[nH]sc3n(C3CC3)c12 (stereo partly drawn) [Compound 113, (R)-7-(3-(1-(cyclopentyl-amino)ethyl)pyrrolidin-1-yl)-9-cyclopropyl-6-fluoro-8-methoxyiso-thiazolo[5,4-b]quinoline-3,4(2H,9H)-dione] | ≤ 1 |  |

Further lines, results first:

| MIC (S. aureus ATCC 29213) [µg/mL] | MIC (E. coli ATCC 25922) [µg/mL] | SMILES |
| --- | --- | --- |
| ≤ 1 | ≤ 1 | CC1CN(c2cc3c(cc2F)c(=O)c2c(=O)[nH]sc2n3C2CC2)CCN1 (centres unmarked) [Compound 17, 9-cyclopropyl-6-fluoro-7-(3-methyl-piperazin-1-yl)isothia-zolo[5,4-b]quinoline-3,4(2H,9H)-dione] |
| ≤ 1 | ≤ 1 | O=c1[nH]sc2c1c(=O)c1cc(F)c(N3CCC(O)C3)cc1n2C1CC1 (centres unmarked) [Compound 18, 9-cyclopropyl-6-fluoro-7-(3-hydroxy-pyrrolidin-1-yl)isothia-zolo[5,4-b]quinoline-3,4(2H,9H)-dione] |
| ≤ 1 | ≤ 1 | O=c1[nH]sc2c1c(=O)c1cc(F)c(N3CCOCC3)cc1n2C1CC1 [Compound 19, 9-cyclopropyl-6-fluoro-7-morpholino-isothiazolo[5,4-b]quinoline-3,4(2H,9H)-dione] |
| ≤ 1 | ≤ 1 | CN1CCN(c2cc3c(cc2F)c(=O)c2c(=O)[nH]sc2n3C2CC2)CC1 [Compound 21, 9-cyclopropyl-6-fluoro-7-(4-methyl-piperazin-1-yl)isothia-zolo[5,4-b]quinoline-3,4(2H,9H)-dione] |
| ≤ 1 | ≤ 1 | CN(C)C1CCN(c2cc3c(cc2F)c(=O)c2c(=O)[nH]sc2n3C2CC2)C1 (centres unmarked) [Compound 22, 9-cyclopropyl-7-(3-(dimethyl-amino)pyrrolidin-1-yl)-6-fluoroiso-thiazolo[5,4-b]quinoline-3,4(2H,9H)-dione] |
| ≤ 1 |  | O=c1[nH]sc2c1c(=O)c1cc(F)c(N3CCCCC3)cc1n2C1CC1 [Compound 23, 9-cyclopropyl-6-fluoro-7-(piperidin-1-yl)isothia-zolo[5,4-b]quinoline-3,4(2H,9H)-dione] |
| ≤ 1 |  | O=c1[nH]sc2c1c(=O)c1cc(F)c(N3CCCC3)cc1n2C1CC1 [Compound 24, 9-cyclopropyl-6-fluoro-7-(pyrrolidin-1-yl)isothia-zolo[5,4-b]quinoline-3,4(2H,9H)-dione] |
| ≤ 1 | ≤ 1 | CC(C)(C)OC(=O)N1CCN(c2cc3c(cc2F)c(=O)c2c(=O)[nH]sc2n3C2CC2)CC1 [Compound 26, tert-butyl 4-(9-cyclopropyl-6-fluoro-3,4-dioxo-2,3,4,9-tetrahydroiso-thiazolo[5,4-b]quinolin-7-yl)piperazine-1-carboxylate] |
| ≤ 1 | ≤ 1 | O=c1[nH]sc2c1c(=O)c1cc(F)c(N3CCSCC3)cc1n2C1CC1 [Compound 28, 9-cyclopropyl-6-fluoro-7-thiomorpho-linoiso-thiazolo[5,4-b]quinoline-3,4(2H,9H)-dione] |
| ≤ 1 | ≤ 1 | O=c1[nH]sc2c1c(=O)c1cc(F)c(NCCN3CCOCC3)cc1n2C1CC1 [Compound 29, 9-cyclopropyl-6-fluoro-7-(2-morpholino-ethyl-amino)iso-thiazolo[5,4-b]quinoline-3,4(2H,9H)-dione] |
| ≤ 1 | ≤ 1 | O=c1[nH]sc2c1c(=O)c1cc(F)c(N3CCN(CCN4CCCC4)CC3)cc1n2C1CC1 [Compound 30] |
| ≤ 1 | ≤ 1 | CN(C)CCN1CCN(c2cc3c(cc2F)c(=O)c2c(=O)[nH]sc2n3C2CC2)CC1 [Compound 32, 9-cyclopropyl-7-(4-(2-(dimethyl-amino)ethyl)piperazin-1-yl)-6-fluoroiso-thiazolo[5,4-b]quinoline-3,4(2H,9H)-dione] |
| ≤ 1 | ≤ 1 | O=c1[nH]sc2c1c(=O)c1cc(F)c(N3CCN(CCN4CCOCC4)CC3)cc1n2C1CC1 [Compound 33, 9-cyclopropyl-6-fluoro-7-(4-(2-morpho-linoethyl)piperazin-1-yl)isothia-zolo[5,4-b]quinoline-3,4(2H,9H)-dione] |
